Laboratory results reported in PubChem BioAssay AID742 (SRMLSC, 2007).
Activity calls are given as the source filed them. The rule behind the calls is not given here.

Columns and labels:
[1] = Her2 expression suppression with viability readout – cell-based, AlphaScreen, CellTiter-Glo viability, dose response (AID 742); conditions: human cells, Her2 expression AlphaScreen; CTG viability; at 9.62 µM (top of the series)
[2] = system: human cells, Her2 expression AlphaScreen; CTG viability; test: as above; conditions: viability, CellTiter-Glo

| Structure (SMILES) | Her2 inhibition [1] | EC50 [2] [µM] |
| --- | --- | --- |
| N#C/C(=C/c1ccc(N2CCCCCC2)o1)c1ccc(F)cc1 | 4.22% (inactive) | > 9.62 |
| CN1CC2=Cc3ccccc3OC23Oc2ccccc2C=C3C1 | -10.3% (inactive) | > 9.62 |
| CCCCn1c(SCc2c(C)noc2C)nc2cc(S(N)(=O)=O)ccc21 | -2.2% (inactive) | > 9.62 |
| [O-][N+]1=c2ccc(Nc3ccccc3)cc2=NC12CCCCC2 | -11% (inactive) | > 9.62 |
| CC1(C)CC(=O)C2=C(C1)OC(=O)C2(NC(=O)c1cccs1)C(F)(F)F (stereo unspecified) | -18.5% (inactive) | > 9.62 |
| c1ccc(-n2c(-c3ccncc3)nnc2N2CCOCC2)cc1 | -8.89% (inactive) | > 9.62 |
| CC(=O)Nc1cccc(NC(=O)c2c(-c3ccccc3Cl)noc2C)c1 | -14.7% (inactive) | > 9.62 |
| N#CC(C#N)=c1ccc2c(c1)N1C3=C(CCCC3)CC3CCCCC31N=2 (stereo unspecified) | 24.3% (inactive) | > 9.62 |
| N#Cc1ccc(-c2ccco2)nc1SCc1ccccc1 | 14.8% (inactive) | > 9.62 |
| CCOC(=O)Cc1csc(NC(=O)COc2ccc(OC)cc2)n1 | -22.7% (inactive) | > 9.62 |
| CCCCCCCCNC(C)C(O)c1ccc(SC(C)C)cc1 (stereo unspecified) | -16.3% (inactive) | > 9.62 |
| Cc1ccc(S(=O)(=O)N2CCC(C(=O)N[C@@H](C)C(=O)NCCc3ccccc3)CC2)cc1 | -5.1% (inactive) | > 9.62 |
| CN1CCCN(C(c2ccccc2)c2ccc(Cl)cc2)CC1 (stereo unspecified) | -8.42% (inactive) | > 9.62 |
| C1CCC(C(CC2CCCCN2)C2CCCCC2)CC1 (stereo unspecified) | -33.2% (inactive) | > 9.62 |
| CCCC1C(c2ccccc2)C(C#N)(C#N)C2(C#N)CC1(N)NC2=O (stereo unspecified) | -6.63% (inactive) | > 9.62 |
| Cc1ccccc1-n1nc2c(c1NC(=O)c1cc3ccccc3oc1=O)CS(=O)(=O)C2 | -11.6% (inactive) | > 9.62 |
| O=C1C2ON(c3ccccc3)C(c3cccnc3)C2C(=O)N1c1ccc(Cl)c(Cl)c1 (stereo unspecified) | -16.1% (inactive) | > 9.62 |
| O=C(CSc1oc(-c2ccccc2)nc1S(=O)(=O)c1ccc(F)cc1)NCC1CCCO1 (stereo unspecified) | 11.4% (inactive) | > 9.62 |
| Cc1ccc(/C=C/C2=Cc3c(sc(NC(=O)CSc4n[nH]c(N)n4)c3C#N)C(C)(C)C2)o1 | -0.68% (inactive) | > 9.62 |
| Cc1ccc2nc(Nc3ccccc3)c(/C=N/O)c(=O)n2c1 | -10.3% (inactive) | > 9.62 |

| Structure (SMILES) | Her2 inhibition [1] | EC50 [2] [µM] |
| --- | --- | --- |
| N=C(N)c1c(O)n(C2CCCCC2)c(=O)n(C2CCCCC2)c1=O | -21.5% (inactive) | > 9.62 |
| c1ccc2cc(OCCN3CCCC3)ccc2c1 | -36.3% (inactive) | > 9.62 |
| Cc1cc(-n2c(C)cc(C(=O)CSc3nnnn3-c3ccc(Cl)cc3)c2C)no1 | -6.46% (inactive) | > 9.62 |
| CN1CCN(c2ccc(C(N)=O)cc2N)CC1 | -16.8% (inactive) | > 9.62 |
| CCN(C(=O)COC(=O)c1cc(C)n(-c2ccc(F)cc2)c1C)C1CCS(=O)(=O)C1 (stereo unspecified) | -2.5% (inactive) | > 9.62 |
| CC(C)OCCCNC(=O)c1c(N)n(Cc2cccs2)c2nc3ccccc3nc12 | -14.5% (inactive) | > 9.62 |
| CCCCCN=Cc1c(C)[nH]n(-c2nc3ccccc3s2)c1=O | -1.78% (inactive) | > 9.62 |
| COc1ccc(OCC(=O)NCc2cccnc2)cc1 | -22.7% (inactive) | > 9.62 |
| CCCCCCOC(=O)C(C#N)c1nc2ccccc2nc1N1CCN(C)CC1 (stereo unspecified) | -32.5% (inactive) | > 9.62 |
| CC1=CC(C)(C)Nc2ccc(OC(=O)c3ccco3)cc21 | 1.48% (inactive) | > 9.62 |
| CC(=O)C(Sc1ncnc2c1nnn2-c1ccc(F)cc1)C(=O)N(C)C (stereo unspecified) | -16.5% (inactive) | > 9.62 |
| Cn1nc(C(=O)Nc2c(-c3ccccc3)nc3sccn23)c2ccccc2c1=O | -13.2% (inactive) | > 9.62 |
| Cc1c(-c2cccs2)[n+](=O)c2c(n1[O-])CCCC2 | -49% (inactive) | > 9.62 |
| Cc1ccc(S(=O)(=O)Nc2cccc3ncccc23)s1 | 14.8% (inactive) | > 9.62 |
| CC(C)COC(=O)N1CC(O)CC1C(=O)O (stereo unspecified) | 7.84% (inactive) | > 9.62 |
| Cc1ccccc1OCCCC(=O)Nc1nccs1 | -6.38% (inactive) | > 9.62 |
| Cc1ccc(C(CC(=O)c2ccco2)SCCO)cc1 (stereo unspecified) | 10.4% (inactive) | > 9.62 |
| C=CCOC(=O)C1=C(C)Nc2nnnn2C1c1cc(OC)ccc1OC (stereo unspecified) | -8.6% (inactive) | > 9.62 |
| COC(=O)Nc1ccc(S(=O)(=O)N(CCO)CC(F)(F)C(F)F)cc1 | -11.6% (inactive) | > 9.62 |
| O=C1C(C2=C(O)c3ccccc3C2=O)=Nc2ccccc21 | -1.36% (inactive) | < 0.024 |

| Structure (SMILES) | Her2 inhibition [1] | EC50 [2] [µM] |
| --- | --- | --- |
| C=CCN=C(NC#N)SCc1ccccc1Cl | 0.27% (inactive) | > 9.62 |
| CCCn1c(Nc2nc3ccccc3n2C)nc2ccccc21 | -10.1% (inactive) | > 9.62 |
| c1ccc(CNC2=NCCC2)nc1 | -3.59% (inactive) | > 9.62 |
| C=C(C)COc1ccc(-c2n[nH]c(C)c2-c2ccccc2OC)c(O)c1 | 4.56% (inactive) | > 9.62 |
| Nc1ccc2ncccc2c1N | 1.77% (inactive) | > 9.62 |
| Oc1ccc(N=Cc2ccc(-c3cccs3)s2)cc1 | 37.6% (inactive) | < 0.024 |
| COc1ccc(-c2nnc(SC(=O)N3c4ccccc4Sc4ccccc43)o2)cc1 | -24.1% (inactive) | > 9.62 |
| COc1ccc(CCN2CCC(Nc3nc4ccccc4n3Cc3ccc(F)cc3)CC2)cc1 | -28.9% (inactive) | > 9.62 |
| Nc1c(S(=O)(=O)c2cccc(Cl)c2)c2nc3ccccc3nc2n1/N=C/c1ccc(O)c(O)c1 | 11.2% (inactive) | > 9.62 |
| COc1ccc2sc(NC(=O)CC(C)C)nc2c1 | 2.84% (inactive) | > 9.62 |
| Cn1c(SC2=CS(=O)(=O)c3ccccc32)nc2ccccc21 | 44.8% (inactive) | > 9.62 |
| Cc1nc2cc(S(=O)(=O)C(F)(F)F)ccc2s1 | -23.9% (inactive) | > 9.62 |
| CCCCCNC(=O)C(C#N)c1nc2ccccc2nc1N1CCCC1 (stereo unspecified) | -19% (inactive) | > 9.62 |
| Cc1[nH]nc2c1C(C1CC=CCC1)C(C#N)=C(N)O2 (stereo unspecified) | -29.3% (inactive) | > 9.62 |
| CC(=O)Nc1cc(OC(C)=O)c2nonc2c1OC(C)=O | 22.3% (inactive) | > 9.62 |
| OC(CN1CCN(c2cccc(C(F)(F)F)c2)CC1)c1c[nH]c2ccccc12 (stereo unspecified) | 4.59% (inactive) | > 9.62 |
| N#CCSc1nc2cc(C(=O)N3CCC(C(N)=O)CC3)ccc2c2nc3ccccc3n12 | 5.14% (inactive) | > 9.62 |
| CC12CCCCC1(O)[N+](=O)C1=C(CCCC1)N2[O-] (stereo unspecified) | -13.5% (inactive) | > 9.62 |
